Results on 4 compounds are retold here after patent US10752656B2, “Anti-microbial supramolecular structures” (Northwestern University, priority 2016, dated 2020).

Series [1] is described as follows: Rheological experiment on PA gels formed with CaCl2. Format: physicochemical. Conditions: 5 mM PA gelled with 0.2 M CaCl2, 100 Hz, 0.5% strain, 25° C. As for the experimental part:
The mechanical property of the PAs was evaluated by performing rheological studies. 25 μL of 0.2 M CaCl2 were added to gel 250 μL of 5 mM PA MilliQ-water solution aged for 2 days on the rheometer. Tests were performed at 100 Hz with 0.5% strain at 25° C., using a 25 mm parallel plate with a 0.5 mm gap distance. The storage moduli used were taken from the time test at 5000 seconds. Frequency sweeps were done at a constant strain of 0.5%, and strain sweeps were done at a frequency of 100 Hz. The plateau modulus was determined as 10, 7.5, 7.5, and 2.8 kPa for parent PA, PA Z1, Z2, and Z3, respectively.

Series [2] deals with Staphylococcus aureus. Format: cell-based. The method, then:
S. aureus (ATCC 25923) (American Type Culture Collection, Manassas, Va.) was cultured in LB broth overnight at 37° C. The suspension of the overnight culture was inoculated in fresh LB broth and cultured under aerobic conditions until reaching an OD600 value of approximately 0.5 (exponential growth phase). The bacterial cells were harvested by centrifugation at 1,500×g for 10 min, washed thrice with PBS, and re-suspended in the appropriate solution for experiment. The bacterial cell suspensions were diluted to an OD600 value of 0.1, which corresponds to 1×10^7 CFU/mL for S. aureus. Before experiment, the bacterial cells were then diluted 1:10 with PBS unless otherwise noted.
The MIC values of peptide amphiphiles were determined in PBS. The MIC determination was made by the Mueller-Hinton (MH) agar plate method. Two-fold serial dilutions of test compound (peptide amphiphiles) solutions in PBS were firstly made in a 96-well microtiter plate. The test compound concentration ranged from 500 μM to 1 μM with 50 μL volume. Then, 50 μL of S. aureus (1×10^6 CFU/mL) suspended in PBS was added to each well for a final cell density of 5×10^5 CFU/mL. The samples were incubated for 3 hrs at 37° C., and then streaked onto MH agar plates. The plates were incubated overnight at 37° C. and the MIC value was recorded based on the lowest test compound concentration that inhibited colony growth.
The minimum inhibitory concentration (MIC) of the PAs against Staphylococcus aureus was determined to estimate their bioactivity as antimicrobial agents. The bacterial cell density is 5×10^5 CFU/mL, and the concentration of the PA solutions is ranging from 0.3 μM to 500 μM. […], the MIC value for PAs Z1 and Z2 was determined to be 4 μM, while inhibition of the growth of the bacterium after treatment by parent PA and PA Z3 at 500 μM was not observed.

≈ marks a conversion by molar mass, not a printed value. Non-standard residues stand in square brackets, D forms with d. Residues, ends and D or L forms follow the SMILES beside them. *: point of attachment. Phe(F5) = N[C@@H](Cc1c(F)c(F)c(F)c(F)c1F)C(=O)O; Palmitoyl = CCCCCCCCCCCCCCCC(=O)*

Regarding `CCCCCCCCCCCCCCCC(=O)N[C@@H](Cc1c(F)c(F)c(F)c(F)c1F)C(=O)N[C@H](C(=O)N[C@H](C(=O)N[C@@H](C)C(=O)N[C@@H](C)C(=O)N[C@@H](C)C(=O)N[C@@H](CCC(=O)O)C(=O)N[C@@H](CCC(=O)O)C(=O)N[C@@H](CCC(=O)O)C(N)=O)C(C)C)C(C)C` [PA Z1] (Palmitoyl-[Phe(F5)]VVAAAEEE-NH2; C-terminus assumed), the plateau modulus in series [1] is listed as 7.5 kPa. The “minimum inhibitory concentration (MIC)” value in series [2] came to 4 µM (≈ 5.17 µg/mL).

As to `CCCCCCCCCCCCCCCC(=O)N[C@H](C(=O)N[C@@H](Cc1c(F)c(F)c(F)c(F)c1F)C(=O)N[C@H](C(=O)N[C@@H](C)C(=O)N[C@@H](C)C(=O)N[C@@H](C)C(=O)N[C@@H](CCC(=O)O)C(=O)N[C@@H](CCC(=O)O)C(=O)N[C@@H](CCC(=O)O)C(N)=O)C(C)C)C(C)C` [PA Z2] (Palmitoyl-V[Phe(F5)]VAAAEEE-NH2; C-terminus assumed), in series [1], the plateau modulus is 7.5 kPa. Further, the “minimum inhibitory concentration (MIC)” value in series [2] came to 4 µM (≈ 5.17 µg/mL).

For the compound `CCCCCCCCCCCCCCCC(=O)N[C@H](C(=O)N[C@H](C(=O)N[C@@H](Cc1c(F)c(F)c(F)c(F)c1F)C(=O)N[C@@H](C)C(=O)N[C@@H](C)C(=O)N[C@@H](C)C(=O)N[C@@H](CCC(=O)O)C(=O)N[C@@H](CCC(=O)O)C(=O)N[C@@H](CCC(=O)O)C(N)=O)C(C)C)C(C)C` [PA Z3] (Palmitoyl-VV[Phe(F5)]AAAEEE-NH2; C-terminus assumed), the plateau modulus in series [1] came out at 2.8 kPa. For the same compound, the “minimum inhibitory concentration (MIC)” value in series [2] was more than 500 µM.

`CCCCCCCCCCCCCCCC(=O)N[C@H](C(=O)N[C@H](C(=O)N[C@H](C(=O)N[C@@H](C)C(=O)N[C@@H](C)C(=O)N[C@@H](C)C(=O)N[C@@H](CCC(=O)O)C(=O)N[C@@H](CCC(=O)O)C(=O)N[C@@H](CCC(=O)O)C(N)=O)C(C)C)C(C)C)C(C)C` [parent PA, reference compound] (Palmitoyl-VVVAAAEEE-NH2; C-terminus assumed) gave a plateau modulus in series [1] of 10 kPa. Besides, the “minimum inhibitory concentration (MIC)” value in series [2] was more than 500 µM.
